Assay results from publication PMC6244206, “C-Terminal Residue of Ultrashort Peptides Impacts on Molecular Self-Assembly, Hydrogelation, and Interaction with Small-Molecule Drugs” (Scientific Reports, 2018).
Where “and” joins values, the source holds several entries; their conditions need not be identical. Equal values may be shown once.

How the values were obtained:
[1] = Small-molecule drug elution studies from peptide hydrogels; type: physicochemical; conditions: for Drug loading capacity in the peptide hydrogels: SMD 2 mM in peptide hydrogels 20 mM (peptides 1A and 1B)
Protocol: We compared the SMD elution profiles of the peptide hydrogels with the theoretical maximal amount of SMD that would diffuse from the hydrogel into the extra volume of PBS if there were no obstruction to diffusion.
The peptides were weighed out in 4 mL-vials, after which phosphate-buffered saline (PBS) containing the small-molecule drug (SMD final concentration = 2 mM) was added to a final volume of 0.30 mL each. The peptide-SMD-PBS mixtures were then shaken and sonicated for 10 s, after which the mixtures were allowed to anneal for 24 h. After that, 0.75 mL of fresh PBS was slowly added with a pipettor to the surface of the hydrogel so as not to disturb the surface of the gel. After 24 h at 25 °C, the PBS was carefully extracted with a pipettor for UV/vis analysis; a fresh volume (0.75 mL) of PBS was then replaced. This process was repeated as many times as the number of pre-determined elution samples. The extracted PBS was transferred into a cuvette (pathlength = 10 mm) and analysed with an Agilent 8543 UV/visible spectrometer for the presence of the SMD. […] A control experiment was set up for each peptide hydrogel, for which no drug was added. This is to account for absorption at the respective wavelengths due to eluted peptide. The elution profile of each peptide is compared with a theoretical maximal elution profile, viz. the theoretical maximal amount of SMD that would diffuse from the hydrogel into the extra volume of PBS if there were no obstruction to diffusion. The cumulative eluted percentage of SMD at each point is given by: [1 − (1/3.5)^n] 100%, where n is the number of elution.

[2] = cited from earlier work
[3] = Solubility of peptides in phosphate-buffered saline to form clear solutions; type: physicochemical; conditions: pH 7.4
Protocol: The peptides were prepared via standard solid-phase peptide synthesis. The purification of all peptides was straightforward, except for peptide 1D. […] As a result, it frequently precipitated on the reversed-phase column during HPLC (high performance liquid chromatography) purification with a gradient of acetonitrile/water, leading to poor yields (<10%). The solubilities of peptides 1 and 2 in phosphate-buffered saline (PBS; pH 7.4) to form clear solutions were then tested; peptides 1A and 2A were also assessed as references. […] As Table 1 indicates, the hexapeptides dissolve to a lower extent than the tripeptides. This is reflective of the greater propensity of the hexapeptides to self-assemble and aggregate due to their longer hydrophobic backbone. In addition, peptides with lysine and arginine dissolve to a greater extent due to their charged side chains at pH 7.4.

[4] = Zeta potential measurements of peptide fibrils; type: physicochemical; conditions: in water, peptide 10 mM, 25 °C; mean of triplicate measurements
Protocol: The zeta potential of the peptide fibrils was measured with an Anton Paar Litesizer 500 Particle Sizer. An omega zeta potential cuvette was utilised for the measurements, which was kept at a constant temperature of 25 °C. Triplicate measurements of each peptide sample were made at concentrations of 10 mM in water.

[5] = Gelation studies of peptides in PBS; type: physicochemical
Protocol: Although peptide 1C could form a gel at 40 mg/mL (30 mM), the hydrogel formed was opaque and inhomogeneous; this is a big contrast to peptide 1A that forms a clear and transparent hydrogel (Fig. 3a). […] On the other hand, perhaps unsurprisingly, the tripeptides generally require higher concentrations to gel. Peptide 2A was previously reported to require a higher peptide concentration to gel than peptide 1A[50]. This has also been observed for peptide 2B, in which 30 mM is required (c.f. 15 mM for peptide 2A). […] As with peptide 1D, peptide 2D could not gel and only precipitated. […] When the hydrophilic components are dominant, the enhanced solubility reduces the driving forces for self-assembly. Consequently, hydrogelation is observed at markedly higher concentrations. Such a balance of hydrophilicity/hydrophobicity has been exploited (via enzymatic control) for the formulation of hydrogels[52],[53].
All peptides were prepared via fluoren-9-ylmethoxycarbonyl (Fmoc)-based solid phase peptide synthesis and purified via reversed-phase high performance liquid chromatography-mass spectrometry (HPLC-MS) on an Agilent 6130 Quadrupole LC/MS system. Peptide hydrogels were prepared by weighing out the appropriate peptide mass in 2 mL-vials. After the requisite volume of phosphate-buffered saline (PBS) was added, the peptide-water mixture was shaken and sonicated for 10 s. […]

[6] = Rheological studies of the peptide hydrogels; type: physicochemical; conditions: hydrogels 40 mg/mL in PBS, oscillatory strain sweep, 6.28 rad/s, 25 °C, triplicates
Protocol: Viscoelastic properties of the hydrogels were assessed at 25 °C with an ARES-G2 rheometer (TA Instruments, Piscataway, NJ) in the 25.0 mm-diameter titanium parallel plate geometry and a gap distance of 0.8 mm. For oscillatory frequency sweep studies, the plate rotation was varied between 0.1–100 rad/s at a constant strain of 0.1%. For oscillatory strain sweep studies, the strain was varied between 0.001–100% at a constant frequency of 6.28 rad/s. Each experiment was carried out in triplicates. This procedure was also previously described by us[88].

[7] = PBS; previously reported; cited from earlier work
Protocol: Although peptide 1C could form a gel at 40 mg/mL (30 mM), the hydrogel formed was opaque and inhomogeneous; this is a big contrast to peptide 1A that forms a clear and transparent hydrogel (Fig. 3a). […] This is a big contrast to peptides 1E and 2E, which were previously reported t ...

Compound | Drug loading capacity in the peptide hydrogels [1] | pKa [2] | Soluble peptide concentration [3] | Zeta potential [4] | Appearance of hydrogel at 40 mg/mL ([5]; 40 mg/mL in PBS) | Status of gel ([5]; phosphate-buffered saline, pH 7.4, at minimal gelation concentration) | Yield stress / strain at which the hydrogel breaks down [6] | Hydrogel formation with doxorubicin ([1]; doxorubicin 2 mM in PBS) | Encapsulated doxorubicin eluted from peptide hydrogel ([1]; doxorubicin 2 mM in peptide hydrogel 20 mM, PBS pH 7.4, 25 °C, repeated elutions with 0.75 mL PBS, UV/vis 480 nm, n = 3) | Hydrogel formation with methotrexate ([1]; methotrexate 2 mM in PBS) | Hydrogel formation with naltrexone ([1]; naltrexone 2 mM in PBS) | Gelation concentration [7]
CN(Cc1cnc2nc(N)nc(N)c2n1)c1ccc(C(=O)N[C@@H](CCC(=O)O)C(=O)O)cc1 [methotrexate, reference compound] | 0.89 mg/g |  |  |  |  |  |  |  |  |  |  | 
O=C1CC[C@@]2(O)[C@H]3Cc4ccc(O)c5c4[C@@]2(CCN3CC2CC2)[C@H]1O5 [naltrexone, reference compound] | 0.67 mg/g | ~ 8.1 |  |  |  |  |  |  |  |  |  | 
acetylated Leu-Ile-Val-Ala-Gly-Lys-NH2 [Peptide 1A] |  |  | 3 mg/mL | +33.40 ± 0.17 mV | transparent hydrogels | Clear, transparent | 3% | formed stable hydrogels | 40% | could do so with methotrexate (with some coagulation within the hydrogel) | formed stable hydrogels | 10 mg/mL and 6 mM
